According to patent US20180042918A1, “RESPIRATORY INFECTION TREATING AGENT” (KYORIN PHARMACEUTICAL CO., LTD., priority 2015, published 2018):
In brackets after ≈: the same amount, converted by molar mass. Where two headings read alike, the source gives them in different places.

What was measured:
[1] = Concentration in tissue (human, oral administration): epithelial lining fluid, alveolar macrophages, plasma; assay type: in vivo; settings: male, oral single dose 75 mg; for Kp: over 1 to 24 hours
Description: Concentration of compound D in lung tissue (epithelial lining fluid and alveolar macrophages) and plasma was measured to investigate intrapulmonary distribution of compound D after oral single administration of this drug, with reference to a method in Document (Antimicrobial Agents and Chemotherapy, February 2010, pp. 866-870).
The measurement was as follows. Healthy adult male volunteers were given oral single dose of compound D (75 mg). The bronchoalveolar lavage fluid and blood samples were collected from the subjects at 1, 2, 4, 6, and 24 hours after the administration. The collection of the fluid and blood samples was carried out at each time point for six subjects. The bronchoalveolar lavage fluid was centrifuged to separate from epithelial lining fluid and alveolar macrophages for measurement of the drug concentration. The concentrations of compound D in lung tissue and plasma were measured by LC/MS/MS.

[2] = tested on: S. pneumoniae ST9941; assay: microbe, parasite or virus in culture; assay type: cell-based; settings: Streptococcus pneumoniae
[3] = tested on: H. influenzaes (26 STRAINS); assay: Antibacterial activity against clinically isolated strains, MIC90; assay type: cell-based; settings: Haemophilus influenzae, 26 clinically isolated strains
Description: (§1) The antibacterial activities in vitro of the compound D, garenoxacin, and levofloxacin against each clinically isolated strain of Streptococcus pneumoniae, Moraxella catarrhalis, and Haemophilus influenzae were measured in accordance with a CLSI microdilution method or a CLSI agar dilution method. A MIC90 value was the minimum concentration in which the growth of 90% strain of all the measured strains was inhibited.

[4] = tested on: M. catarrhalis (26 STRAINS); assay: as above; assay type: cell-based; settings: Moraxella catarrhalis, 26 clinically isolated strains
Description: as §1

[5] = tested on: PCG-LOW SENSITIVE S. pneumoniae (22 STRAINS); assay: as above; assay type: cell-based; settings: Streptococcus pneumoniae, 22 clinically isolated strains
Description: as §1

[6] = tested on: PSSP (26 STRAINS); assay: as above; assay type: cell-based; settings: Streptococcus pneumoniae, 26 clinically isolated strains
Description: as §1

[7] = AUC and Cmax, plasma concentration by HPLC after repeated oral doses; assay type: in vivo; settings: male, human, Japanese healthy adult males, oral 75 mg once daily for seven days, day 7, plasma
Description: Six Japanese healthy adult males received oral doses of 75 mg compound D once daily for seven consecutive days. The plasma concentration of compound D was measured by the HPLC method, and the pharmacokinetic parameters were calculated.

[8] = Clinical efficacy (cure rate) in patients with community-acquired pneumonia; assay type: in vivo, human; settings: oral 75 mg once daily for 7 days, seven days after treatment completion
Description: We investigated efficacy of compound D for the patients with community-acquired pneumonia. 50 patients with community-acquired pneumonia were orally administered 75 mg of compound D once daily for 7 days. The clinical efficacy (cure rate) was evaluated at seven days after treatment completion. The clinical trial was performed in accordance with a part of evaluation on patients with community-acquired pneumonia (pp. 34 to 38) in “general guidelines for the evaluation of new antimicrobial agents for the treatment of respiratory tract infections (second version).”

[9] = tested on: S. aureus MS5935; assay: Antibacterial activity against quinolone-resistant strain in vitro, CLSI dilution; assay type: cell-based; settings: Staphylococcus aureus; S. aureus MS5935, PARENT STRAIN, gyrA None, grlA None
[10] = tested on: S. aureus MS5935 3rd; assay: microbe, parasite or virus in culture; assay type: cell-based; settings: Staphylococcus aureus, MS59353RD
[11] = human, 2.5 to 3.5 hours after administration; cited from earlier work
[12] = consecutive administration, daily dose of 400 mg; cited from earlier work
[13] = 400 mg, patients with bacterial pneumonia; cited from earlier work
[14] = alveolar macrophages, read-out: TISSUE DISTRIBUTION RATIO, ALVEOLAR MACROPHAGES
[15] = epithelial lining fluid, read-out: TISSUE DISTRIBUTION RATIO, ALVEOLAR EPITHELIAL LINING FLUID

Which results are given for COc1c(N2C[C@H](CNC3CC3)[C@H](F)C2)c(F)cc2c(=O)c(C(=O)O)cn(CCF)c12.Cl [Compound D, 7-[(3S,4S)-3-{(cyclopropylamino)methyl}-4-fluoropyrrolidine-1-yl]-6-fluoro-1-(2-fluoroethyl)-8-methoxy-4-oxo-1,4-dihydroquinoline-3-carboxylic acid hydrochloride]?
Kp at 1 h [1, 14]: 31.9; Kp at 2 h [1, 14]: 18.5; Kp at 4 h [1, 14]: 21.9; Kp at 6 h [1, 14]: 56.4; Kp at 24 h [1, 14]: 38; Kp ([1]; alveolar macrophages, read-out: tissue distribution ratio in alveolar macrophages, range): 18.5 to 56.4; Kp at 1 h [1, 15]: 22.5; Kp at 2 h [1, 15]: 18.4; Kp at 4 h [1, 15]: 16.5; Kp at 6 h [1, 15]: 15.2; Kp at 24 h [1, 15]: 15; Kp ([1]; epithelial lining fluid, read-out: tissue distribution ratio in epithelial lining fluid, range): 15 to 22.5; MIC [2]: 0.5 µg/mL; MIC90 [3]: 0.06 µg/mL; MIC90 [4]: 0.06 µg/mL; MIC90 [5]: 0.06 µg/mL; MIC90 [6]: 0.06 µg/mL; AUC ([7]; read-out: area under the curve (AUC)): 20600 ng·h/mL; Cmax ([7]; read-out: maximum drug concentration (Cmax)): 998 ng/mL; clinical efficacy (cure rate) [8]: 90.0%; MIC [9]: 0.015 µg/mL; MIC [10]: 0.5 µg/mL

Which MIC [2] does the source give for C[C@H]1NCc2cc(-c3ccc4c(=O)c(C(=O)O)cn(C5CC5)c4c3OC(F)F)ccc21 [GRNX, garenoxacin] here?
Its MIC is 2 µg/mL (≈ 4.69 µM).

And the MIC90 [3]?
The MIC90 was 0.015 µg/mL (≈ 0.0352 µM).

And the MIC90 [4]?
Its MIC90 is 0.015 µg/mL (≈ 0.0352 µM).

And the MIC90 [5]?
Its MIC90 is 0.06 µg/mL (≈ 0.141 µM).

And the MIC90 [6]?
Its MIC90 is 0.06 µg/mL (≈ 0.141 µM).

What about the MIC [9] of the same compound?
The MIC was 0.015 µg/mL (≈ 0.0352 µM).

And the MIC [10]?
The MIC was 8 µg/mL (≈ 18.8 µM).

What about the “tissue distribution ratio in the alveolar macrophages” value [11] of the same compound?
Its value is 11.15±8.16.

And the “tissue distribution ratio in the epithelial lining fluid” value [11]?
Its value is 0.95±0.41.

And the AUC [12]?
Its AUC is 110900 ng·h/mL.

And the Cmax [12]?
The Cmax was 11060 ng/mL.

What about the clinical efficacy rate [13] of the same compound?
The clinical efficacy rate was 94.9%.
